Measured values taken from the supplement of paper PMC10307832.

Experiments:
Experiment in all cases: relative viability (nuclei count vs DMSO), 5 days (fraction); higher = more cells survive
[1] = compound: C1CC1C(=O)NC2=NNC3=C2C=CC(=C3)C4=CC(=CC=C4)C(=O)NC5CC5 [XMD13-2] + COc1cccc2cc(-c3nc([C@H]4CC[C@H](C(=O)O)CC4)n4ncnc(N)c34)[nH]c12 [OSI-027] (partner 0.5 µM)
Procedure, shortened: (§1)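 For relative viability, nuclei counts in treated wells were divided by those in vehicle wells. Lung cancer cell lines had been pin-tool dosed in 1536-well plates the day after seeding and cultured for 5 days, then fixed and stained in one step (final 0.05% Triton X-100, 1% formaldehyde, 1 ug/ml Hoechst) and imaged at 4×. Doses were one drug alone or a fixed anchor-drug dose plus five library-drug doses (not always all listed) in √10 steps, and values are duplicate-plate medians.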

[2] = compound: C1CC1C(=O)NC2=NNC3=C2C=CC(=C3)C4=CC(=CC=C4)C(=O)NC5CC5 [XMD13-2] + Cc1nc(NC(=O)N2CCC[C@H]2C(N)=O)sc1-c1ccnc(C(C)(C)C(F)(F)F)c1 [Alpelisib] (partner 2 µM)
Procedure, shortened: as §1

[3] = compound: Cc1ccc(C(=O)Nc2cccc(C(F)(F)F)c2)cc1Nc1cncc(C(N)=O)c1 [ALW-II-49-7] + Nc1ncn([C@H]2C[C@H](O)[C@@H](CO)O2)c(=O)n1 [Decitabine] (partner 2 µM)
Procedure, shortened: as §1

[4] = compound: Cc1nc(Nc2ncc(C(=O)Nc3c(C)cccc3Cl)s2)cc(N2CCN(CCO)CC2)n1 [Dasatinib] + COc1cccc2cc(-c3nc([C@H]4CC[C@H](C(=O)O)CC4)n4ncnc(N)c34)[nH]c12 [OSI-027] (partner 0.5 µM)
Procedure, shortened: as §1

Cell Line | relative viability ([1]; first compound 0.05 µM) | relative viability ([1]; first compound 0.1581 µM) | relative viability ([1]; first compound 0.5 µM) | relative viability ([1]; first compound 1.581 µM) | relative viability ([1]; first compound 5 µM) | relative viability ([2]; first compound 0.05 µM) | relative viability ([2]; first compound 0.1581 µM) | relative viability ([2]; first compound 0.5 µM) | relative viability ([2]; first compound 1.581 µM) | relative viability ([2]; first compound 5 µM) | relative viability ([3]; first compound 0.08 µM) | relative viability ([3]; first compound 0.253 µM) | relative viability ([3]; first compound 0.8 µM) | relative viability ([3]; first compound 2.53 µM) | relative viability ([3]; first compound 8 µM) | relative viability ([4]; first compound 0.005 µM) | relative viability ([4]; first compound 0.01581 µM) | relative viability ([4]; first compound 0.05 µM) | relative viability ([4]; first compound 0.1581 µM) | relative viability ([4]; first compound 0.5 µM)
NCI-H2170 | 0.748 | 0.703 | 0.744 | 0.559 | 0.704 | 0.97 | 0.77 | 0.871 | 0.777 | 0.696 | 0.542 | 0.478 | 0.5 | 0.464 | 0.468 | 0.71 | 0.635 | 0.711 | 0.568 | 0.323
NCI-H727 | 0.543 | 0.68 | 0.573 | 0.54 | 0.664 | 0.549 | 0.423 | 0.527 | 0.51 | 0.55 | 0.775 | 0.884 | 0.738 | 0.824 | 0.703 | 0.6 | 0.488 | 0.45 | 0.295 | 0.197
NCI-H838 | 0.432 | 0.402 | 0.339 | 0.398 | 0.437 | 1.14 | 1.04 | 1.01 | 1 | 1.06 | 0.413 | 0.433 | 0.483 | 0.447 | 0.48 | 0.409 | 0.266 | 0.265 | 0.252 | 0.179
NCI-H1792 | 0.772 | 0.813 | 0.696 | 0.914 | 0.669 | 0.845 | 0.691 | 0.745 | 0.845 | 0.821 | 0.553 | 0.356 | 0.486 | 0.506 | 0.633 | 0.774 | 0.559 | 0.681 | 0.461 | 0.333
H3255 | 0.705 | 0.536 | 0.589 | 0.564 | 0.549 | 0.858 | 0.597 | 0.658 | 0.729 | 0.624 | 0.611 | 0.511 | 0.662 | 0.577 | 0.425 | 0.639 | 0.484 | 0.653 | 0.44 | 0.274
EPLC-272H | 0.313 | 0.257 | 0.281 | 0.238 | 0.247 | 1.03 | 0.856 | 1.07 | 0.759 | 0.463 | 0.326 | 0.381 | 0.329 | 0.373 | 0.295 | 0.33 | 0.338 | 0.252 | 0.29 | 0.091
NCI-H647 | 0.779 | 0.781 | 0.669 | 0.59 | 0.508 | 1.31 | 1.22 | 1.14 | 1.05 | 1.22 | 0.322 | 0.321 | 0.396 | 0.374 | 0.307 | 0.672 | 0.303 | 0.251 | 0.213 | 0.118
LXF-289 | 0.874 | 0.761 | 0.829 | 0.697 | 0.867 | 1.09 | 0.982 | 1.08 | 1.05 | 1.04 | 0.391 | 0.372 | 0.411 | 0.407 | 0.443 | 0.812 | 0.733 | 0.567 | 0.323 | 0.125
NCI-H1755 | 0.798 | 0.699 | 0.797 | 0.576 | 0.775 | 0.928 | 0.915 | 0.928 | 0.92 | 0.965 | 0.66 | 0.726 | 0.719 | 0.756 | 0.719 | 0.679 | 0.604 | 0.507 | 0.384 | 0.191
HCC-15 | 0.765 | 0.723 | 0.733 | 0.546 | 0.484 | 0.91 | 0.811 | 0.911 | 0.878 | 0.619 | 0.596 | 0.654 | 0.626 | 0.624 | 0.644 | 0.641 | 0.652 | 0.526 | 0.412 | 0.454
EMC-BAC-2 | 0.394 | 0.4 | 0.383 | 0.366 | 0.358 | 0.844 | 0.748 | 0.752 | 0.703 | 0.57 | 1.01 | 1.02 | 0.982 | 0.947 | 0.907 | 0.315 | 0.264 | 0.259 | 0.192 | 0.152
NCI-H1734 | 0.683 | 0.554 | 0.647 | 0.502 | 0.447 | 0.887 | 0.577 | 0.662 | 0.576 | 0.565 | 0.492 | 0.53 | 0.527 | 0.584 | 0.574 | 0.562 | 0.432 | 0.476 | 0.411 | 0.307
NCI-H1395 | 0.684 | 0.757 | 0.653 | 0.633 | 0.647 | 1.3 | 1.07 | 0.976 | 0.984 | 1.1 | 0.674 | 0.712 | 0.632 |  | 0.642 | 0.615 | 0.7 | 0.541 | 0.361 | 0.35
HOP-62 | 0.998 | 0.896 | 0.783 | 0.895 | 0.792 | 0.848 | 0.516 | 1.03 | 1 | 0.664 | 0.207 | 0.286 | 0.165 | 0.223 | 0.285 | 0.856 | 0.864 | 0.743 | 0.546 | 0.196
LK-2 | 0.236 | 0.151 | 0.191 | 0.239 | 0.216 | 1.33 | 0.998 | 0.98 | 1.04 | 1.02 | 0.393 | 0.288 | 0.301 |  | 0.252 | 0.2 | 0.174 | 0.158 | 0.167 | 0.172
SW 1573 | 0.691 | 0.581 | 0.647 | 0.497 | 0.36 | 1.03 | 0.711 | 1.01 | 0.676 | 0.666 | 0.442 | 0.601 | 0.654 | 0.44 | 0.423 | 0.638 | 0.532 | 0.393 | 0.408 | 0.296
